Each block holds one molecule with its values, some of them ahead of it. Ends that are not written are not given here.
Legend:
CRKL secretion = CRKL secretion inhibition study (immunoprecipitation from serum-free medium); type: cell-based; settings: cells incubated with compound in serum-free medium for 9 hours
Procedure: Cells were synchronized for 24-48 hours in RPMI serum-free medium followed by a spin and filtration through a 0.22 μm filter, and pre-absorbed to control antibodies. An equal volume of PBS was added to the recovered supernatant prior to immunoprecipitating with the appropriate antibodies. Brefeldin A, glybenclamide, and thapsigargin were used for secretion inhibition studies. Cells were incubated with the compounds in serum-free medium for 9 hours prior to immunoprecipitation with the appropriate antibodies. No detergents were used in the immunoprecipitation studies. By using the methodology described above, CRKL is found in a free soluble state and not in vesicles.

[1] = tested on: human prostate cancer xenografts (DU145-derived); assay: Therapy in tumor-bearing mice (tumor volume); type: in vivo, nude mice; settings: equimolar amounts, systemically administered, vs untreated or vehicle
Source text: Finally, a pilot pre-clinical trial that included four cohorts of size-matched tumor-bearing mice was designed and conducted (FIG. 11). Animals received the following reagents: (i) the synthetic PSI domain-mimic peptide, (ii) the synthetic PSI domain-mimic peptide linked to a pro-apoptotic peptidomimetic (Arap et al., 2004; Ellerby et al., 1999; Kolonin et al., 2004; Zurita et al., 2004) in order to induce targeted apoptosis upon receptor-mediated internalization, (iii) the synthetic pro-apoptotic peptidomimetic alone, or (iv) vehicle alone. All peptides or peptidomimetics were administered at equimolar concentrations.
DU145 tumor-bearing mice were size-matched and divided into individual cohorts (n=4 mice per group). The tumor-homing peptide […] (SEQ ID NO:1) was synthesized fused with the proapoptotic motif D(KLAKLAK)2. Unconjugated peptide […] (SEQ ID NO:1) or D(KLAKLAK)2 served as controls. The synthetic peptides were systemically administered and tumor volumes measured as described (Arap et al., 1998; Arap et al., 2004).

rCRKL-SH3 (N) domain = target: T1, rCRKL-SH3 (N) domain (Homo sapiens, UniProt P46109); assay: Peptide binding assay with recombinant His-tag proteins (ELISA); settings: peptide coated on microtiter plates
T1 construct: cDNAs corresponding to each of the SH domains were PCR-amplified and cloned into the Sac I and Xho I restriction sites; His-tag; made in house; host or cells: E. coli BL21
Procedure: (§1) Synthetic tumor-homing peptide ([…]; SEQ ID NO:1) or PSI-derived peptide (NSTFLQEGMPTSA; SEQ ID NO:23) were coated on microtiter plates followed by blocking, and washing. The following recombinant His-tag proteins were added to the coated plates: rCRKL, rCRKL-SH2 domain, rCRKL-SH3 (N) domain, and rCRKL-SH3 (C) domain. An unrelated control protein (α2-Heremans-Schmid glycoprotein; AHSG) served as a negative control. The mixtures were incubated, washed, and labeled with the appropriate antibodies. Secondary antibodies conjugated to horse-radish peroxidase (HRP) were added followed by adding TMB substrate (Calbiochem), and analyzed by an automated ELISA reader (Bio-Tek). To determine the inhibitory activity of the tumor-homing peptide, the PSI-derived peptide, or the phage clone displaying the corresponding tumor-homing peptide were incubated with the rCRKL-SH3 (C) domain. Unrelated cyclic peptide sequences and insertless phage (fd-tet) served as negative controls. The admixtures were incubated and added to wells coated with the tumor-homing peptide. After incubation, the wells were washed, labeled with the appropriate antibodies, and processed as above.

rCRKL-SH3 (C) domain [2] = target: T2, rCRKL-SH3 (C) domain (Homo sapiens, UniProt P46109); assay: as above; settings: peptide coated on microtiter plates
T2 construct: cDNAs corresponding to each of the SH domains were PCR-amplified and cloned into the Sac I and Xho I restriction sites; His-tag; made in house; host or cells: E. coli BL21
Procedure: as §1

rCRKL = target: T3, rCRKL (Homo sapiens, UniProt P46109); assay: as above; settings: peptide coated on microtiter plates
T3 construct: The open reading frame of full-length CRKL cDNA (Invitrogen) was PCR-amplified and cloned in a pET28a (Novagen) expression vector; His-tag; made in house; host or cells: E. coli BL21
Procedure: as §1

rCRKL-SH3 (C) domain [3] = target: T2, rCRKL-SH3 (C) domain; assay: Inhibition of rCRKL-SH3 (C) domain binding to coated tumor-homing peptide; settings: inhibitor pre-incubated with rCRKL-SH3 (C)
Procedure: as §1

[4] = tested on: KS1767 and DU145 human tumor xenografts and EF43-FGF4 mouse mammary carcinoma; assay: In vivo homing of targeted or control phage in mice bearing different tumor types; settings: systemic administration; KS1767, DU145 and EF43-FGF4 models
Procedure: The tumor targeting attributes of CRKL-binding phage in tumor-bearing mice was evaluated next. First, phage constructs displaying either the selected CRKL-binding peptide or a panel of control (mutant or scrambled) peptides were designed and produced. Phage clones were tested in human tumor xenografts (Kaposi sarcoma KS1767 cells and prostate carcinoma DU145 cells) and an isogenic mouse tumor model (EF43-FGF4 mammary carcinoma).
In vivo targeting experiments with phage were performed as described (Hajitou et al., 2006; Arap et al., 1998; Arap et al., 2004; Kolonin et al., 2004; Marchio et al., 2004). Animals used in experiments were: Male nude mice bearing human DU145 xenografts or female nude mice with human Kaposi sarcoma KS1767-derived xenografts subcutaneously and immunocompetent Balb/c female mice bearing EF43-FGF4-derived breast tumors orthotopically in the mammary fat pad. Briefly, mice bearing tumors (˜8 mm) were anesthetized and injected intravenously via tail vein with 5×10^10 T.U. per mouse of wild-type […] (SEQ ID NO:1)-phage, or negative controls: fd-tet phage (insertless) and scrambled […] (SEQ ID NO:26)-phage, […] (SEQ ID NO:27)-phage, […] (SEQ ID NO:29)-phage, […] (SEQ ID NO:30)-phage or mutants […] (SEQ ID NO:25)-phage and […] (SEQ ID NO:28)-phage. Cohorts of two mice with size-matched tumors received each set of phage clones. After 24 hours, tumors were dissected from each mouse and phage recovered by bacterial infection and normalized by weight of tissue. The experiments were repeated twice for each tumor model. […] The fd phage served a negative control and the RGD-4C (Hajitou et al., 2006; Arap et al., 1998) served as a positive control. Only minimal background apoptosis (<1% of the total cells) were detected by TUNEL staining (Promega) on paraffin-embedded tumor tissue sections.

DU145 cells = assay: Peptide internalization assay (WST-1 cell viability, annexin-V staining); type: cell-based, human
Procedure: The internalization capability of the tumor-homing peptide fused through a glycinylglycine bridge to a pro-apoptotic sequence was tested as described Arap et al., 2004; Ellerby et al., 1999; Kolonin et al., 2004; Zurita et al., 2004). The conjugated tumor-homing peptide, […] (SEQ ID NO:67)-D(KLAKLAK)2 or the untargeted control peptide D(KLAKLAK)2 were synthesized and increasing equimolar peptide concentrations were added to the DU145 cells. Cell viability was assayed by the WST-1 reagent (Roche) and annexin-V staining for apoptosis (Zurita et al., 2004; Cardo-Vila et al., 2003). For tumor-homing phage localization studies, cells were incubated with 10^9 T.U. tumor-homing ([…]; SEQ ID NO:1) or a negative control (fd-tet) phage for 6 and 24 hours. Wells were washed with 20 mM glycine to remove non-specific cell surface bound phage and then fixed with 4% paraformaldehyde. The non-permeabilized cells were incubated with rabbit anti-fd bacteriophage antibody (Sigma) for 2 hours at room temperature followed by 1 hour incubation with Cy3-labeled anti-rabbit IgG antibody (Jackson ImmunoResearch). Cells were again fixed with 4% paraformaldehyde and mounted in the presence of DAPI (Vector Laboratories) and images were acquired with an Olympus fluorescence microscope.

[5] = target: CRKL binding to β1 integrin (Homo sapiens, UniProt P46109); assay: Protein-protein interaction between CRKL and β1 integrin, inhibition assay
Procedure: Phage binding assays on purified proteins were carried out as described (Giordano et al. 2001). Recombinant proteins were coated on microtiter wells as previous described (Cardo-Vila et al., 2003; Smith and Scott, 1993). Briefly, proteins were immobilized on microtiter wells overnight at 4° C. 50 μl of 1 μg/ml in PBS. Wells were washed twice with PBS, blocked with PBS containing 3% BSA for 2 hours at room temperature, and incubated with 10^9 T.U. wild-type tumor-homing phage ([…]; SEQ ID NO:1), scrambled phage ([…] (SEQ ID NO:26), […] (SEQ ID NO:27), […] (SEQ ID NO:29), […] (SEQ ID NO:30)), mutant phage ([…] (SEQ ID NO:25), […] (SEQ ID NO:28)), PSI-derived cyclic phage (CNSTFLQEGMPTSAC; SEQ ID NO:23) or fd-tet phage in 50 μl of PBS containing 1.5% BSA. After 1 hour at room temperature, wells were washed ten times with PBS and phage were recovered by bacterial infection. ELISA with polyclonal anti-CKRL confirmed the presence and concentration of the CKRL recombinant proteins on the wells. […] After 3 hours, binding of CKRL to integrins was detected by using an anti-CKRL antibody followed by an HRP-conjugated anti-rabbit IgG. […]

Sequence of CRKL binding to β1 integrin (P46109 whole entry): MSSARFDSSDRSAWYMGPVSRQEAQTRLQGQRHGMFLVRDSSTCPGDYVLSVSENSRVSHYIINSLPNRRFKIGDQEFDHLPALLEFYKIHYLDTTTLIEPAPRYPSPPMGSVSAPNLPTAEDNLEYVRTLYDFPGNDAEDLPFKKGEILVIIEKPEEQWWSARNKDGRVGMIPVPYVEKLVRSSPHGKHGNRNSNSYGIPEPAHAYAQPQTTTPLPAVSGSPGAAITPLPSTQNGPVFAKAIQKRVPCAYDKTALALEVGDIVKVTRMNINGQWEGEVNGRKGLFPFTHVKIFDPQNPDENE
T2 sequence (P46109 235-296 limits assumed): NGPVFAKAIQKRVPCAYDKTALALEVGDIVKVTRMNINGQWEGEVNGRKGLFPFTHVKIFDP
T3 sequence (P46109 whole entry): as the sequence (P46109 whole entry) above
T1 sequence (P46109 123-183 limits assumed): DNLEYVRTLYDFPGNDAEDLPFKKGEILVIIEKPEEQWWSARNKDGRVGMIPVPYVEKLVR

Molecule: C[C@H]1CCC/C=C/[C@@H]2C[C@H](O)C[C@H]2[C@H](O)/C=C/C(=O)O1 [brefeldin A]
CRKL secretion / release (CRKL secretion): do not appear to inhibit

Molecule: COc1ccc(Cl)cc1C(=O)NCCc1ccc(S(=O)(=O)NC(=O)NC2CCCCC2)cc1 [glybenclamide]
CRKL secretion / release (CRKL secretion): does prevent

Molecule: C/C=C(/C)C(=O)O[C@H]1C(C)=C2[C@H]([C@@H]1OC(=O)CCCCCCC)[C@@](C)(OC(C)=O)C[C@H](OC(=O)CCC)[C@@]1(O)[C@H]2OC(=O)[C@@]1(C)O [thapsigargin]
CRKL secretion / release (CRKL secretion): do not appear to inhibit

Molecule: D(KLAKLAK)2 [reference compound]
tumor growth / tumor volume [1]: no differences in tumor volume

binding to rCRKL-SH3 (N) domain (rCRKL-SH3 (N) domain): bound | binding to rCRKL-SH3 (C) domain (rCRKL-SH3 (C) domain [2]): bound | binding to rCRKL (rCRKL): bound | inhibition of binding of the tumor-homing peptide to rCRKL-SH3 (C) domain (rCRKL-SH3 (C) domain [3]): inhibited
Molecule: NSTFLQEGMPTSA (listed as Homo sapiens) [synthetic peptide derived from the native PSI domain of β1 integrin, residues 50 to 62]

Molecule: YRCETDSPHEFHLWNTFCAM
tumor homing / tumor targeting [4]: no tumor targeting activity

Molecule: YRCETDSPHEFHLWNTMCAF
tumor homing / tumor targeting [4]: no tumor targeting activity

Molecule: YRCTLNSAFFWEDMTHECHA
tumor homing / tumor targeting [4]: no tumor targeting

Molecule: YRCTLNSPAAAEDMTHECHA
tumor homing / tumor targeting [4]: no tumor targeting activity

Molecule: YRCTLNSPFFWEDMTHECHAGG (SEQ ID NO:67)-D(KLAKLAK)2
tumor growth / tumor volume [1]: Markedly reduced tumor growth | tumor growth / tumor volume ([1]; listed as targeted pro-apoptotic peptidomimetic): significantly inhibited | programmed cell death (annexin-V staining) (DU145 cells; DU145 cells): Programmed cell death was confirmed | internalization (DU145 cells; DU145 cells, measured by cell viability and annexin-V): enables internalization | cell killing (cell viability, WST-1) (DU145 cells; increasing equimolar concentrations, control D(KLAKLAK)2): Targeted cell killing relative to controls

Molecule: YRECTDSPHEFHLWNTMCAF
tumor homing / tumor targeting [4]: no tumor targeting

Molecule: YRFCTSPFHEWHLENTDMCA
tumor homing / tumor targeting [4]: no tumor targeting

inhibition of CRKL binding to β1 integrin ([5]; up to 800 ηm): concentration-dependent inhibition | IC50 ([5]; wells coated with α5β1 integrin): 20 nM
Molecule: gst-PSI: recombinant gst fusion protein of the entire PSI domain of β1 integrin (CLKANAKSCGECIQAGPNCGWCTNSTFLQEGMPTSARCDDLEALKKKGC; cysteine pairing not given here; also: N-terminal GST fusion, not written)

Reference: patent US20110189095A1, “CRKL TARGETING PEPTIDES” (The Board of Regents, of the University of Texas System, priority 2008, published 2011)
